Target: BTK (Homo sapiens (Human), UniProt Q06187)
Assay: Reversibility of binding (compound in solution by HPLC-MS/MS before and after target perturbation)
Protocol: The following approach was developed to differentiate compounds that form irreversible covalent bond with their targets, such as non-cyano containing acrylamide compounds, from compound that form reversible covalent bond i.e., compounds and/or pharmaceutically acceptable salts of the present disclosure. […] The reactions were then treated with perturbations including both denaturation with 5 M guanidine hydrochloride and digestion with trypsin, disrupting proper folding of the target. […] The concentration of compound in solution was assessed both preceding and following perturbation using high performance liquid chromatography (HPLC) coupled to tandem mass spectrometry.

BTK, sequence (Q06187 whole entry): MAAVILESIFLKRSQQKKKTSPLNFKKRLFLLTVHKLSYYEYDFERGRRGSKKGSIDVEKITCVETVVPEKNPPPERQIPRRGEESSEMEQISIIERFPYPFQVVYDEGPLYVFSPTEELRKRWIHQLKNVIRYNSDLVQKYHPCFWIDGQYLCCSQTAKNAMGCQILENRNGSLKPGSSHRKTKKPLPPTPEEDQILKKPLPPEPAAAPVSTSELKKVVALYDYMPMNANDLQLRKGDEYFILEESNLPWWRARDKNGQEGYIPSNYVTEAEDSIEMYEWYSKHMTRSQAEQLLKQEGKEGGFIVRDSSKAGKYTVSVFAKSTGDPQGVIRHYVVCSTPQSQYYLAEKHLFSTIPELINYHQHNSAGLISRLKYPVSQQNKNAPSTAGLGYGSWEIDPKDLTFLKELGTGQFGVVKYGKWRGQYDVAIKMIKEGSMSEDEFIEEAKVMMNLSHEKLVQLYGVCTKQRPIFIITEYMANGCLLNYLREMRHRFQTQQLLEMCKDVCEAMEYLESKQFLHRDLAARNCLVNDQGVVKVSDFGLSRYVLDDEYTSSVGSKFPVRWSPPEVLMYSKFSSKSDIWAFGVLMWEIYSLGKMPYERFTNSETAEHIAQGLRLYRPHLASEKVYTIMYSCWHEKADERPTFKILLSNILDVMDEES

- Compound in solution in the denatured or digested state? (after 5 M guanidine hydrochloride denaturation or trypsin digestion): yes
- Compound in solution in the native state? (target in excess, native state): no
Structure (SMILES): CN(C1COC1)C(C)(C)C=C(C#N)C(=O)N1CCC[C@H]1Cn1nc(-c2ccc(Oc3ccccc3)cc2F)c2c(N)ncnc21 [Example 10, 2-[(2S)-2-[[4-amino-3-(2-fluoro-4-phenoxy-phenyl)pyrazolo[3,4-d]pyrimidin-1-yl]methyl]pyrrolidine-1-carbonyl]-4-methyl-4-[methyl(oxetan-3-yl)amino]pent-2-enenitrile]

— patent publication US9266895B2, “Substituted pyrazolo[3,4-d]pyrimidines as kinase inhibitors” (PRINCIPIA BIOPHARMA INC., priority 2012, dated 2016)
